Active and inactive are the calls of the source. The calls are words filed in the database; no cut-off is given here.
How the values were obtained:
HCT-116 [1] = experiment: Cytotoxicity against human HCT116 cells assessed as cell survival at 50 uM after 48 hrs by Hoechst 33342 staining based assay relative to control; assay type: functional; details: HCT-116, 48 h, read-out: Survival
PC-3 [2] = experiment: Induction of apoptosis in human PC3 cells harboring p53 mutant assessed as increase in early apoptosis at 2 times IC50 after 48 hrs by YoPro/propidium iodide/Hoechst staining based assay; assay type: functional, cell-based
MCF7 [3] = experiment: Induction of apoptosis in human MCF7 cells harboring wild-type p53 assessed as increase in late apoptosis at 2 times IC50 after 24 hrs by YoPro/propidium iodide/Hoechst staining based assay; assay type: functional, cell-based
MDA-MB-231 [4] = experiment: Induction of apoptosis in human MDA-MB-231 cells harboring p53 mutant assessed as increase in late apoptosis at 2 times IC50 after 24 hrs by YoPro/propidium iodide/Hoechst staining based assay; assay type: functional, cell-based
PC-3 [5] = experiment: Cell cycle arrest in human PC3 cells harboring p53 mutant assessed as mitotic index at 10 uM measured after 48 hrs by Hoechst staining based fluorescence assay (reference value: 2.5); assay type: functional
HaCaT [6] = experiment: Cytotoxicity against human HaCaT cells assessed as cell viability after 48 hrs by Hoechst 33342 staining based assay; assay type: functional
MCF7 [7] = experiment: Induction of apoptosis in human MCF7 cells harboring wild-type p53 assessed as upregulation of p21 measured after 48 hrs by Hoechst staining based fluorescence assay; assay type: functional, cell-based
HCT-116 [8] = experiment: Induction of apoptosis in human HCT116 cells harboring wild-type p53 assessed as increase in cleaved caspase3 at 2 times IC50 after 48 hrs by Hoechst staining based assay; assay type: functional, cell-based
HaCaT [9] = experiment: Cell cycle arrest in human HaCaT cells harboring […] p53 assessed as mitotic index at 10 uM measured after 48 hrs by Hoechst staining based fluorescence assay (reference value: 2.6); assay type: functional
[10] = Cytotoxicity against human fibroblasts assessed as cell survival at 50 uM after 48 hrs by Hoechst 33342 staining based assay relative to control; parameters: species or system Fibroblast; details: read-out: Survival
Caco-2 [11] = experiment: Cell cycle arrest in human Caco2 cells assessed as accumulation at S phase at 10 uM measured after 48 hrs by Hoechst/BrdU staining based fluorescence assay (reference value: […]); assay type: functional
HCT-116 [12] = experiment: Cell cycle arrest in human HCT116 cells harboring wild-type p53 assessed as accumulation at S phase at 25 uM measured after 48 hrs by Hoechst/BrdU staining based fluorescence assay (reference value: 68.4%); assay type: functional
MDA-MB-231 [13] = experiment: Induction of apoptosis in human MDA-MB-231 cells harboring p53 mutant assessed as upregulation of cyclinB1 after 18 hrs by Hoechst staining based assay; assay type: functional, cell-based
Caco-2 [14] = experiment: Cell cycle arrest in human Caco2 cells assessed as accumulation at S phase at 25 uM measured after 48 hrs by Hoechst/BrdU staining based fluorescence assay (reference value: […]); assay type: functional
HaCaT [15] = experiment: Cytotoxicity against human HaCaT cells assessed as cell survival at 50 uM after 48 hrs by Hoechst 33342 staining based assay relative to control; assay type: functional; details: read-out: Survival
HaCaT [16] = experiment: Cell cycle arrest in human HaCaT cells assessed as accumulation at M phase by Hoechst staining based fluorescence assay; assay type: functional
Huh-7 [17] = experiment: Cell cycle arrest in human HuH7 cells assessed as accumulation at S phase at 10 uM measured after 48 hrs by Hoechst/BrdU staining based fluorescence assay (reference value: 44%); assay type: functional
MDA-MB-231 [18] = experiment: Cytotoxicity against human MDA-MB-231 cells assessed as cell viability after 48 hrs by Hoechst 33342 staining based assay; assay type: functional; details: MDA-MB-231, 48 h
PC-3 [19] = experiment: Cytotoxicity against human PC3 cells assessed as cell viability after 48 hrs by Hoechst 33342 staining based assay; assay type: functional; details: PC-3, 48 h
[20] = Selectivity index, ratio of IC50 for human fibroblasts to IC50 for human PC3 cells
HCT-116 [21] = experiment: Cell cycle arrest in human HCT116 cells assessed as accumulation at G1/S phase by Hoechst staining based fluorescence assay; assay type: functional
HCT-116 [22] = experiment: Cell cycle arrest in human HCT116 cells harboring wild-type p53 assessed as accumulation at S phase at 10 uM measured after 48 hrs by Hoechst/BrdU staining based fluorescence assay (reference value: 68.4%); assay type: functional
Huh-7 [23] = experiment: Cell cycle arrest in human HuH7 cells assessed as mitotic index at 10 uM measured after 48 hrs by Hoechst staining based fluorescence assay (reference value: 2.2); assay type: functional
Caco-2 [24] = experiment: Cytotoxicity against human Caco2 cells assessed as cell viability after 48 hrs by Hoechst 33342 staining based assay; assay type: functional; details: Caco-2, 48 h
Huh-7 [25] = experiment: Cytotoxicity against human HuH7 cells assessed as cell viability after 48 hrs by Hoechst 33342 staining based assay; assay type: functional; details: Huh-7, 48 h
PC-3 [26] = experiment: Cytotoxicity against human PC3 cells assessed as cell survival at 50 uM after 48 hrs by Hoechst 33342 staining based assay relative to control; assay type: functional; details: PC-3, 48 h, read-out: Survival
NCI-H727 = experiment: Cell cycle arrest in human NCI-H727 cells harboring p53 mutant assessed as accumulation at S phase at 25 uM measured after 48 hrs by Hoechst/BrdU staining based fluorescence assay (reference value: 40.3%); assay type: functional
HaCaT [27] = experiment: Cell cycle arrest in human HaCaT cells harboring […] p53 assessed as accumulation at S phase at 25 uM measured after 48 hrs by Hoechst/BrdU staining based fluorescence assay (reference value: 52.3%); assay type: functional
HCT-116 [28] = experiment: Cell cycle arrest in human HCT116 cells harboring wild-type p53 assessed as mitotic index at 10 uM measured after 48 hrs by Hoechst staining based fluorescence assay (reference value: 2.3); assay type: functional
Caco-2 [29] = experiment: Cell cycle arrest in human Caco2 cells assessed as mitotic index at 25 uM measured after 48 hrs by Hoechst staining based fluorescence assay (reference value: 3.6); assay type: functional
HaCaT [30] = experiment: Cell cycle arrest in human HaCaT cells harboring […] p53 assessed as mitotic index at 25 uM measured after 48 hrs by Hoechst staining based fluorescence assay (reference value: 2.6); assay type: functional
Caco-2 [31] = experiment: Cell cycle arrest in human Caco2 cells assessed as mitotic index at 10 uM measured after 48 hrs by Hoechst staining based fluorescence assay (reference value: 3.6); assay type: functional
Huh-7 [32] = experiment: Cytotoxicity against human HuH7 cells assessed as cell survival at 50 uM after 48 hrs by Hoechst 33342 staining based assay relative to control; assay type: functional; details: Huh-7, 48 h, read-out: Survival
PC-3 [33] = experiment: Cell cycle arrest in human PC3 cells harboring p53 mutant assessed as accumulation at S phase at 25 uM measured after 48 hrs by Hoechst/BrdU staining based fluorescence assay (reference value: 40.8%); assay type: functional
MCF7 [34] = experiment: Cytotoxicity against human MCF7 assessed as cell viability after 48 hrs by Hoechst 33342 staining based assay; assay type: functional; details: MCF7, 48 h
[35] = Selectivity index, ratio of IC50 for human fibroblasts to IC50 for human HCT116 cells
MCF7 [36] = experiment: Induction of apoptosis in human MCF7 cells harboring wild-type p53 assessed as increase in early apoptosis at 2 times IC50 after 24 hrs by YoPro/propidium iodide/Hoechst staining based assay; assay type: functional, cell-based
MDA-MB-231 [37] = experiment: Cytotoxicity against human MDA-MB-231 cells assessed as cell survival at 50 uM after 48 hrs by Hoechst 33342 staining based assay relative to control; assay type: functional; details: MDA-MB-231, 48 h, read-out: Survival

Structure (SMILES) | viability at 50 µM (HCT-116 [1]) [%] | Activity (PC-3 [2]) | Activity (MCF7 [3]) | Activity_index (PC-3 [5]) | IC50 (HaCaT [6]) [µM] | Activity (MCF7 [7]) | Activity (HCT-116 [8]) | Activity_index (HaCaT [9]) | viability at 48 h, 50 µM [10] [%] | Activity (Caco-2 [11]) [%] | Activity (HCT-116 [12]) [%] | Activity (Caco-2 [14]) [%] | viability at 50 µM (HaCaT [15]) [%] | Activity (HaCaT [16]) | Activity (Huh-7 [17]) | IC50 (MDA-MB-231 [18]) [µM] | IC50 (PC-3 [19]) [µM] | Ratio IC50 [20] | Activity (HCT-116 [21]) | Activity (HCT-116 [22]) [%] | other results
COc1cc(OC)c(C(=O)/C=C/c2ccccc2)c(OC)c1 | 1 | Active | Active | 18 | 7.2 | Active | Active | 18.3 | 74 | 38 | 2.6 | 24 | 20 | Active | 45% | 12.9 | 5.1 | >9.8 | Active | 19 | Activity (MDA-MB-231 [4]): Active; Activity (MDA-MB-231 [13]): Active; Activity_index (Huh-7 [23]): 8.5; IC50 (Caco-2 [24]): 5.8 µM; IC50 (Huh-7 [25]): 15.5 µM; viability at 50 µM (PC-3 [26]): 29%; Activity (NCI-H727): 4.5%; Activity (HaCaT [27]): 0.1%; Activity_index (HCT-116 [28]): 2; Activity_index (Caco-2 [29]): 13; Activity_index (HaCaT [30]): 0.1; Activity_index (Caco-2 [31]): 38.7; viability at 50 µM (Huh-7 [32]): 6%; Activity (PC-3 [33]): 1.7%; IC50 (MCF7 [34]): 9.4 µM; Ratio IC50 [35]: >7.2; Activity (MCF7 [36]): Active; viability at 50 µM (MDA-MB-231 [37]): 13%
COc1cc(O)c(C(=O)/C=C/c2ccccc2OC)c(OC)c1 | 8 | Active | Active | 2.9 | 10.9 | Active | Active | 3.1 | 71 | 46 | 27 | 37 | 30 | Active | inactive | > 20 | 9.6 | 3.8 | Active | 42 | Activity (Huh-7 [23]): inactive; IC50 (Caco-2 [24]): 10 µM; IC50 (Huh-7 [25]): > 20 µM; viability at 50 µM (PC-3 [26]): 32%; Activity (NCI-H727): 14%; Activity (HaCaT [27]): 29%; Activity_index (HCT-116 [28]): 1.2; Activity_index (Caco-2 [29]): 21.5; Activity_index (HaCaT [30]): 8.4; Activity_index (Caco-2 [31]): 6.8; viability at 50 µM (Huh-7 [32]): 39%; Activity (PC-3 [33]): 24%; IC50 (MCF7 [34]): 10.5 µM; Ratio IC50 [35]: 4; Activity (MCF7 [36]): Active; viability at 50 µM (MDA-MB-231 [37]): 37%
COc1cc(O)c(C(=O)/C=C/c2ccccc2SC)c(OC)c1 | 1 | Active | Active | 4.4 | 10.5 | Active | Active | 3.1 | 65 | 50 | 28 | 37 | 22 | Active | 50% | > 20 | 8.7 | 4.1 | Active | 52 | Activity_index (Huh-7 [23]): 2.3; IC50 (Caco-2 [24]): 9.6 µM; IC50 (Huh-7 [25]): 16.6 µM; viability at 50 µM (PC-3 [26]): 35%; Activity (NCI-H727): 12%; Activity (HaCaT [27]): 30%; Activity_index (HCT-116 [28]): 0.8; Activity_index (Caco-2 [29]): 21.9; Activity_index (HaCaT [30]): 7.8; Activity_index (Caco-2 [31]): 6; viability at 50 µM (Huh-7 [32]): 38%; Activity (PC-3 [33]): 31%; IC50 (MCF7 [34]): 15.9 µM; Ratio IC50 [35]: 3.6; Activity (MCF7 [36]): Active; viability at 50 µM (MDA-MB-231 [37]): 39%

Reference: ChEMBL document CHEMBL3992552, “Mechanisms of action and structure-activity relationships of cytotoxic flavokawain derivatives” (Bioorg Med Chem, 2017)
